In paper PMC11122949, “Metabolic Blockade-Based Genome Mining of Sea Anemone-Associated Streptomyces sp. S1502 Identifies Atypical Angucyclines WS-5995 A–E: Isolation, Identification, Biosynthetic Investigation, and Bioactivities” (Marine Drugs, 2024):

Key:
A549 = test: MTT cytotoxicity assay, A549; assay type: cell-based, human; settings: A549, 72 h
Description: (§1) Compounds 1–5 were tested for their cytotoxic activities against different normal and tumor human cell lines, the MTT assay was used to assess cytotoxicity as described previously. Briefly, different tumor cells and normal cells were seeded onto 96-well plates at the appropriate density and allowed to attach overnight. Drugs at various concentrations were added to the culture medium and cells were cultured for another 68 h at 37 °C. MTT (5 mg/mL, 20 μL/well) was then added to the wells for additional 4 h, and the medium was discarded before 150 μL of DMSO was added to dissolve the MTT-formazan crystals. Absorbance was measured at 540 nm, with background subtraction at 670 nm using Model 550 Microplate Reader (Bio-Rad, Hercules, CA, USA). The Bliss method was used to calculate the half maximal (50%) inhibitory concentration (IC50) values. Data represent the mean ± SD of at least three independent experiments.

MCF-7 = test: MTT cytotoxicity assay, MCF-7; assay type: cell-based, human
Description: as §1

NCM-460 = test: MTT cytotoxicity assay, NCM-460 (normal cells); assay type: cell-based; settings: 72 h
Description: as §1

Huvec = test: MTT cytotoxicity assay, Huvec (normal cells); assay type: cell-based; settings: 72 h, Huvec normal human cell line
Description: as §1

BT-549 = test: MTT cytotoxicity assay, BT-549; assay type: cell-based, human; settings: BT-549, 72 h
Description: as §1

RBE = test: MTT cytotoxicity assay, RBE; assay type: cell-based, human; settings: 72 h
Description: as §1

Eimeria tenella = test: In vitro anticoccidial activity (qPCR); assay type: cell-based; settings: 48 h
Description: The number of Eimeria tenella spores and the cells were seeded in a 24-well plate at a ratio of 1:1 and incubated for 6 h, and the medium was discarded and washed with PBS three times. Then, 500 μL of medium was added to each well, followed by the addition of the medium containing the compounds, the blank control group (no spores and no compounds) and positive control group (with spores but no compound) were set, and 10 μM of sulfaclozinium chloride sodium served as a control drug, and three replicates were set up. The culture remained in an incubator containing 5% CO2 at 38 °C for 48 h. After 48 h, the medium was discarded and washed with PBS three times, and the total RNA of each well was extracted and reverse-transcribed into cDNA. qPCR was used to detect the effects of the compounds on the growth and development of E. tenella.

[1] = tested on: MCF-7, BT-549, RBE and A549; NCM-46 and Huvec; test: MTT cytotoxicity, whole panel of cell lines; assay type: cell-based; settings: four human cancer and two normal human cell lines
Description: as §1

[2] = tested on: Eimeria tenella infections; design: method as in PMID 7451360; settings: animal experiments; cited from earlier work
fungi = tested on: fungi; design: method as in PMID 19798499; settings: cited from earlier work
[3] = Homo sapiens, MCF7, MCF-7, 72 h
[4] = NCM460, NCM-460 normal human cell line

Q: Which IC50 (A549; Homo sapiens) does the source give for COc1cccc2c1C(=O)c1c(O)c3c(c(O)c1C2=O)C[C@@](O)(C(=O)CO)C[C@@H]3O[C@H]1C[C@H](N)[C@H](O)[C@H](C)O1 [Adriamycin, reference compound] here?
A: 4.62 µM

Q: And the IC50 (MCF-7; [3])?
A: 2.96 µM

Q: And the IC50 (NCM-460; [4])?
A: 3.24 µM

Q: And the IC50 (Huvec; Homo sapiens, HUVEC)?
A: 3.87 µM

Q: And the IC50 (BT-549; Homo sapiens)?
A: 6.42 µM

Q: And the IC50 (RBE; Homo sapiens)?
A: 3.62 µM

Q: Which results are given for N.N.[Cl][Pt][Cl] [Cisplatin, reference compound]?
A: IC50 (A549): 9.34 µM; IC50 (MCF-7; MCF-7, 72 h): 4.49 µM; IC50 (NCM-460; NCM-460 normal human cell line): 19 µM; IC50 (Huvec): 5.26 µM; IC50 (BT-549): 14.2 µM; IC50 (RBE): 4.26 µM

Q: Which results are given for CCOC(=O)c1cc(C)cc(OC)c1C1=C(O)C(=O)c2c(O)cccc2C1=O [Compound 1, WS-5995 E]?
A: IC50 (A549; Homo sapiens): > 50 µM; in vitro anti-E. tenella bioactivity (Eimeria tenella): only exhibited activity at high concentrations; IC50 (MCF-7; [3]): > 50 µM; IC50 (NCM-460; [4]): > 50 µM; IC50 (Huvec; Homo sapiens, HUVEC): > 50 µM; IC50 (BT-549; Homo sapiens): > 50 µM; cytotoxic effects against the tested cell lines [1]: did not exhibit cytotoxic effects; IC50 (RBE; Homo sapiens): > 50 µM

Q: Which IC50 (A549; Homo sapiens) does the source give for COc1cc(C)cc2c(=O)oc3c(c12)C(=O)c1cccc(O)c1C3=O [Compound 2, WS-5995A] here?
A: > 50 µM

Q: And the “in vitro anti-E. tenella bioactivity” value (Eimeria tenella)?
A: significant anticoccidial activity

Q: And the IC50 (Eimeria tenella; Eimeria tenella, read-out: anti-E. tenella activity IC50)?
A: 2.21 µM

Q: What about the IC50 (MCF-7; [3]) of the same compound?
A: > 50 µM

Q: And the IC50 (NCM-460; [4])?
A: 40.8 µM

Q: What about the IC50 (Huvec; Homo sapiens, HUVEC) of the same compound?
A: 31.2 µM

Q: What about the IC50 (BT-549; Homo sapiens) of the same compound?
A: > 50 µM

Q: What about the IC50 (RBE; Homo sapiens) of the same compound?
A: 21.4 µM

Q: And the “protective activity against Eimeria tenella infections” value [2]?
A: excellent protective activity

Q: Which IC50 (A549; Homo sapiens) does the source give for COc1cc(C)cc(C(=O)O)c1C1=CC(=O)c2c(O)cccc2C1=O [Compound 3, WS-5995B] here?
A: > 50 µM

Q: And the IC50 (MCF-7; [3])?
A: 19.6 µM

Q: And the IC50 (NCM-460; [4])?
A: 18.5 µM

Q: What about the IC50 (Huvec; Homo sapiens, HUVEC) of the same compound?
A: 7.67 µM

Q: And the IC50 (BT-549; Homo sapiens)?
A: 5.97 µM

Q: What about the antifungal activity (fungi) of the same compound?
A: antifungal activity

Q: And the IC50 (RBE; Homo sapiens)?
A: 16.8 µM

Q: What about the “protective activity against Eimeria tenella infections” value [2] of the same compound?
A: excellent protective activity

Q: Which IC50 (A549; Homo sapiens) does the source give for COc1cc(C)cc(C(=O)O)c1C1=C(O)C(=O)c2c(O)cccc2C1=O [Compound 4, WS-5995C] here?
A: > 50 µM

Q: And the “in vitro anti-E. tenella bioactivity” value (Eimeria tenella)?
A: not active

Q: And the IC50 (MCF-7; [3])?
A: > 50 µM

Q: What about the IC50 (NCM-460; [4]) of the same compound?
A: > 50 µM

Q: And the IC50 (Huvec; Homo sapiens, HUVEC)?
A: > 50 µM

Q: And the IC50 (BT-549; Homo sapiens)?
A: > 50 µM

Q: And the “cytotoxic effects against the tested cell lines” value [1]?
A: did not exhibit cytotoxic effects

Q: And the IC50 (RBE; Homo sapiens)?
A: > 50 µM

Q: For COC(=O)c1cc(C)cc(OC)c1C1=C(O)C(=O)c2c(O)cccc2C1=O [Compound 5, WS-5995D], which IC50 (A549; Homo sapiens) is on record?
A: > 50 µM

Q: What about the “in vitro anti-E. tenella bioactivity” value (Eimeria tenella) of the same compound?
A: only exhibited activity at high concentrations

Q: What about the IC50 (MCF-7; [3]) of the same compound?
A: > 50 µM

Q: And the IC50 (NCM-460; [4])?
A: > 50 µM

Q: What about the IC50 (Huvec; Homo sapiens, HUVEC) of the same compound?
A: > 50 µM

Q: And the IC50 (BT-549; Homo sapiens)?
A: > 50 µM

Q: And the “cytotoxic effects against the tested cell lines” value [1]?
A: did not exhibit cytotoxic effects

Q: And the IC50 (RBE; Homo sapiens)?
A: > 50 µM
